How the values were obtained:
[1] = 4-week repeated-dose toxicity test in rats; set-up: species or system SD rats; details: Sprague-Dawley, rat, in vivo
Description: In accordance with the relevant requirements of the Good Laboratory Practice for Non-clinical Drug Studies issued by the National Medical Products Administration of the People's Republic of China, and following the test protocol and revisions, the safety pharmacology test, single-dose toxicity, genetic toxicity, etc. of ILB-2109 were explored.
SD rats were given continuous intragastric administration of ILB-2109 at doses of 0 (vehicle), 60, 200 and 600 mg/kg for 28 consecutive days. […] WBC and #LYMPH increased or tended to increase in medium and high-dose groups; GLU decreased or tended to decrease in medium and high-dose groups; CREA and UREA increased or tended to increase in female high-dose group; GLOB increased and A/G decreased in female animals of each dose group. […] All the above changes completely recovered during the recovery period. […] ILB-2109 may have toxic effects on digestive system (liver function), blood system (granulocyte series) and urinary system (renal function) of SD rats, which can be reversed at the end of the recovery period.

[2] = system: histidine-deficient Salmonella typhimurium strains (TA97a, TA98, TA100, TA102 and TA1535); assay: AMES reverse mutation test; type: cell-based; details: 128 ~ 5000 µg/plate, with or without S9 metabolic activation system
From the text: This test detected the ability of ILB-2109 to induce reverse mutation of histidine-deficient Salmonella typhimurium strains (TA97a, TA98, TA100, TA102 and TA1535) with and without exogenous metabolic activation system. […] Therefore, under the research conditions, the Ames test result was negative.

Plasma protein binding = type: in vitro ADME; details: one range given for CD-1 mice, Sprague-Dawley rats, Beagle dogs and cynomolgus monkeys
[3] = In vivo metabolism in cynomolgus monkeys (plasma profile); details: male and female monkeys
From the text: In in vivo metabolism experiments of cynomolgus monkeys, the relative abundance of parent drug ILB-2109 in plasma samples of male and female monkeys was more than 83%, which was the main component in plasma samples. ILB-2109 was mainly metabolized via oxidation, dehydrogenation and glucuronidation in monkey plasma.

CYP3A4 = target: T1, CYP3A4 (Homo sapiens, UniProt P08684); assay: Human liver microsome CYP inhibition (direct and time-dependent); type: in vitro ADME; details: for IC50: human liver microsomes
T1 construct: In vitro human liver microsome tests; from tissue; host or cells: human liver microsomes
From the text: (§1) The non-dilution method was used to determine the time-dependent inhibitory effect of ILB-2109 on human liver microsomal cytochrome P450 isoenzymes (CYP1A2, CYP2B6, CYP2C8, CYP2C9, CYP2C19, CYP2D6 and CYP3A4). Generally, an IC50 shift multiple ≥1.5 was taken as the judgment standard for time-dependent inhibitors.

CYP2C19 = target: T2, CYP2C19 (Homo sapiens, UniProt P33261); assay: as above; type: in vitro ADME
T2 construct: In vitro human liver microsome tests; from tissue; host or cells: human liver microsomes
From the text: as §1

CYP2C9 = target: T3, CYP2C9 (Homo sapiens, UniProt P11712); assay: as above; type: in vitro ADME
T3 construct: In vitro human liver microsome tests; from tissue; host or cells: human liver microsomes
From the text: as §1

CYP2D6 = target: T4, CYP2D6 (Homo sapiens, UniProt P10635); assay: as above; type: in vitro ADME
T4 construct: In vitro human liver microsome tests; from tissue; host or cells: human liver microsomes
From the text: as §1

CYP2B6 = target: T5, CYP2B6 (Homo sapiens, UniProt P20813); assay: as above; type: in vitro ADME
T5 construct: In vitro human liver microsome tests; from tissue; host or cells: human liver microsomes
From the text: as §1

CYP1A2 = target: T6, CYP1A2 (Homo sapiens, UniProt P05177); assay: as above; type: in vitro ADME
T6 construct: In vitro human liver microsome tests; from tissue; host or cells: human liver microsomes
From the text: as §1

CYP2C8 = target: T7, CYP2C8 (Homo sapiens, UniProt P10632); assay: as above; type: in vitro ADME
T7 construct: In vitro human liver microsome tests; from tissue; host or cells: human liver microsomes
From the text: as §1

A2b receptor = A2b receptor (Homo sapiens, UniProt P29275); assay: Adenosine receptor selectivity, A2aR compared with A2b; type: binding
From the text: (§2) Meanwhile, ILB-2109 had high selectivity for A2aR (compared with A1, A2b and A3 receptors, the selectivity was 18.9 times, 40.7 times and 3424.7 times respectively).

A3 receptor = A3 receptor (Homo sapiens, UniProt P0DMS8); assay: Adenosine receptor selectivity, A2aR compared with A3; type: binding
From the text: as §2

[4] = Cynomolgus monkey absorption test (pharmacokinetics); type: in vivo, cynomolgus monkeys; details: for Cmax: read-out: peak concentration (Cmax)
Description: According to the Technical Guidelines for Non-clinical Pharmacokinetic Studies of Drugs and the results of in vitro metabolic species difference studies, liquid chromatography-tandem mass spectrometry (LC-MS/MS) was used in this pharmacokinetic study to fully verify the analytical method for the determination of ILB-2109 content in plasma (EDTA-K2 anticoagulation) of Sprague-Dawley rats and cynomolgus monkeys. The linear range of the method was 20.0~20000 nM. The precision, accuracy and other indicators of the method were confirmed to comply with the relevant regulations of biological sample detection.
This experiment studied the pharmacokinetic properties of ILB-2109 in female and male cynomolgus monkeys, including 1) 3 mg/kg single intravenous injection administration study; 2) 3, 15 and 60 mg/kg oral dose escalation study; 3) 15 mg/kg oral administration BID for 7 consecutive days.

[5] = non-dilution method, IC50 shift multiple ≥1.5 as judgment standard
[6] = both sexes, cynomolgus monkey, plasma, po, 3 mg/kg, cynomolgus monkeys, single oral 3 mg/kg
[7] = both sexes, cynomolgus monkey, plasma, po, 15 mg/kg, cynomolgus monkeys, oral 15 mg/kg twice a day for 7 days, Day 1
[8] = both sexes, cynomolgus monkey, plasma, po, 15 mg/kg, cynomolgus monkeys, oral 15 mg/kg twice a day for 7 days, Day 7
[9] = both sexes, cynomolgus monkey, plasma, po, 15 mg/kg, cynomolgus monkeys, single oral 15 mg/kg
[10] = both sexes, cynomolgus monkey, plasma, po, 60 mg/kg, cynomolgus monkeys, single oral 60 mg/kg

T1 sequence (P08684 2-503): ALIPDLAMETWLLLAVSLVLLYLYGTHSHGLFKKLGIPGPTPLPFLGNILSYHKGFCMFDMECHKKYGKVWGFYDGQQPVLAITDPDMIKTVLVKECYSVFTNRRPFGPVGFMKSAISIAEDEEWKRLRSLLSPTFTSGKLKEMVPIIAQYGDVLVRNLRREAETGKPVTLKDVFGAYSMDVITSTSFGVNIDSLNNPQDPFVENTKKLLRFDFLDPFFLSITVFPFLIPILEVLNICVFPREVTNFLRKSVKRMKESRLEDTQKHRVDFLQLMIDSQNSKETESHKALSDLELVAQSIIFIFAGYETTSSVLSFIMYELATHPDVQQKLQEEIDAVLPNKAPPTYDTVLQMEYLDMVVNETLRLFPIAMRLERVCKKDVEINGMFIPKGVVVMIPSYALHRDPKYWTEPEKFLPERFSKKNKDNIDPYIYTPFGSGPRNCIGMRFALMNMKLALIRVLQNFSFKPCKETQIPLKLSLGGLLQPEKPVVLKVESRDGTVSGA
T7 sequence (P10632 whole entry): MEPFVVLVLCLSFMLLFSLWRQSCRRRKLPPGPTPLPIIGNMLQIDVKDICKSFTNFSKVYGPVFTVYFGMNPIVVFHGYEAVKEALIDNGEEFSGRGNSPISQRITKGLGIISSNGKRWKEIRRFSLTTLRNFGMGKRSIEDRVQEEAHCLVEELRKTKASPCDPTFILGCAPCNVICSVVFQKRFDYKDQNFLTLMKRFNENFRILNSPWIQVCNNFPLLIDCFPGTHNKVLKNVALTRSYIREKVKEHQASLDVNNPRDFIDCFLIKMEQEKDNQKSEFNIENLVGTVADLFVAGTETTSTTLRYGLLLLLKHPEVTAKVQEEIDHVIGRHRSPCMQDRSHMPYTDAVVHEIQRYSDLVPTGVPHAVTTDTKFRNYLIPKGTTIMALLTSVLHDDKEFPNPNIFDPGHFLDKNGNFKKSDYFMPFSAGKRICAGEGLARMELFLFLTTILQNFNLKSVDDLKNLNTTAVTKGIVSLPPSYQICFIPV
T2 sequence (P33261 whole entry): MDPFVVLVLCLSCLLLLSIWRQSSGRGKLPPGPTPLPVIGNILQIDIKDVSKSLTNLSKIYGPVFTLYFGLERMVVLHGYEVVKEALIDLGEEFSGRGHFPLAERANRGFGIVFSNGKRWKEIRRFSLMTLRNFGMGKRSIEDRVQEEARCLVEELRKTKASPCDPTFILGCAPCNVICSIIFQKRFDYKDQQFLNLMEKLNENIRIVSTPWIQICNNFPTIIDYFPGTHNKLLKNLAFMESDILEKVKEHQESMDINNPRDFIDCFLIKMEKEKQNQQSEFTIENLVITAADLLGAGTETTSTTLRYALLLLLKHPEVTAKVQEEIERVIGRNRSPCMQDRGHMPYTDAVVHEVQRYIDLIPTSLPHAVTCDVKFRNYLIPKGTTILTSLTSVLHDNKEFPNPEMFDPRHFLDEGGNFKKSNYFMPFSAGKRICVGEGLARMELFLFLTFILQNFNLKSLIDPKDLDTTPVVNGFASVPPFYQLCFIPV
T6 sequence (P05177 whole entry): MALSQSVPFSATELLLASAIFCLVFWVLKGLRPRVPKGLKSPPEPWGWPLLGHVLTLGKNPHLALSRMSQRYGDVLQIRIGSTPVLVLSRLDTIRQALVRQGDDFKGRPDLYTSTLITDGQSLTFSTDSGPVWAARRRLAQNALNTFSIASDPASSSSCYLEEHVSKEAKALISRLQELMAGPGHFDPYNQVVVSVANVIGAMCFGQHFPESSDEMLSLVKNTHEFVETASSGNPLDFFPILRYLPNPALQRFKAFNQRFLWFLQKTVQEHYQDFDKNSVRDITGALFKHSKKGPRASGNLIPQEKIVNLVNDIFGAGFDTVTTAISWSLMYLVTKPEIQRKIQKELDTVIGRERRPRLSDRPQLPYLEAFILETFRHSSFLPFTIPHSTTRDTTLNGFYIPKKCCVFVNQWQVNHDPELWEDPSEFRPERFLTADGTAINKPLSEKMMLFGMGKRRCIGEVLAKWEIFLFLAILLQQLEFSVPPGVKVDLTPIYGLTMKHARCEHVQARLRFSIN
T4 sequence (P10635 whole entry): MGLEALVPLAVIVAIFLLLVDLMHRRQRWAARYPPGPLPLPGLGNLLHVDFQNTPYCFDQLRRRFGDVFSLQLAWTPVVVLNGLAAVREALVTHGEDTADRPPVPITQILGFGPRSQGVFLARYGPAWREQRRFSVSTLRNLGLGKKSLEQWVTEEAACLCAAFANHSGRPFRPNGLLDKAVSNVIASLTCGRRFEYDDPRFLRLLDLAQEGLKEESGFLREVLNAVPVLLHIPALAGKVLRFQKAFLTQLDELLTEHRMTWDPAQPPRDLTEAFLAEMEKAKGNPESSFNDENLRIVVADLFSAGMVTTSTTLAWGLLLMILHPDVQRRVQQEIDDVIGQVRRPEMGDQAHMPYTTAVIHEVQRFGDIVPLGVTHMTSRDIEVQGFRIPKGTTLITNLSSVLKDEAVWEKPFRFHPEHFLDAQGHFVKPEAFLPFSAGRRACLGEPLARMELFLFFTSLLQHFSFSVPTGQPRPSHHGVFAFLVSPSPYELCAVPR
T3 sequence (P11712 whole entry): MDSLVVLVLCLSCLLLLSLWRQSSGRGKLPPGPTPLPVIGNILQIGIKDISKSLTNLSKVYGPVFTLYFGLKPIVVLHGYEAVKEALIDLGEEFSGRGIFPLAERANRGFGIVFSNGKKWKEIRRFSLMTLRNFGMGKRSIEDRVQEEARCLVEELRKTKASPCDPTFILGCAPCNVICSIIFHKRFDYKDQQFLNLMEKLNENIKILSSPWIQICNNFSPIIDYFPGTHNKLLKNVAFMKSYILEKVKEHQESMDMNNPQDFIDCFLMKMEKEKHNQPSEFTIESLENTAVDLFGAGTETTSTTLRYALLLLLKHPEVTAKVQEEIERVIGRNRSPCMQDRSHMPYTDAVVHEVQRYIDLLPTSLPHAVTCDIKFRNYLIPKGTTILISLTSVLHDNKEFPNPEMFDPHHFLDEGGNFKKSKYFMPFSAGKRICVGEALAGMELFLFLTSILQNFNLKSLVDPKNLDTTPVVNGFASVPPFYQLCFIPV
T5 sequence (P20813 whole entry): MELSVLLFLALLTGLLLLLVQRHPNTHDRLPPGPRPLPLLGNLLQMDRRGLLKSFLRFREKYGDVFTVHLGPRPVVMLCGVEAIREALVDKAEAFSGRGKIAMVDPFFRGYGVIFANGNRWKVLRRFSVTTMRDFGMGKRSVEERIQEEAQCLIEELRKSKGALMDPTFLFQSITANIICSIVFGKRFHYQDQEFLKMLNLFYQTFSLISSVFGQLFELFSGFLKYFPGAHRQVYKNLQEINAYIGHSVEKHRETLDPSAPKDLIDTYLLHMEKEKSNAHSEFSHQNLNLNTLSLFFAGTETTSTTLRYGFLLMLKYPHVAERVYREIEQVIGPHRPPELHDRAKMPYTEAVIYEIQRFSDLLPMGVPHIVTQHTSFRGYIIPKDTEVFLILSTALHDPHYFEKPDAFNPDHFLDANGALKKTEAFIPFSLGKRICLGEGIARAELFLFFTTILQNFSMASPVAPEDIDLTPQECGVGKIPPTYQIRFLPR
Sequence of A2b receptor (P29275 whole entry): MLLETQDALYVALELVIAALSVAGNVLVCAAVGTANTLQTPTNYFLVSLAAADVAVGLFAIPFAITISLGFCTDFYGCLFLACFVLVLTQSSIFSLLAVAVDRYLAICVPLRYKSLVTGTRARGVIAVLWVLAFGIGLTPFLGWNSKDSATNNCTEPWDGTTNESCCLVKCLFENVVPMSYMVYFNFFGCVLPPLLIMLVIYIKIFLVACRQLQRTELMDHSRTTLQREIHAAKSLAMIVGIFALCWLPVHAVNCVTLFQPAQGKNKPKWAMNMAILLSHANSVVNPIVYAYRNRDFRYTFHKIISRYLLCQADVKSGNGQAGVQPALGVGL
Sequence of A3 receptor (P0DMS8 whole entry): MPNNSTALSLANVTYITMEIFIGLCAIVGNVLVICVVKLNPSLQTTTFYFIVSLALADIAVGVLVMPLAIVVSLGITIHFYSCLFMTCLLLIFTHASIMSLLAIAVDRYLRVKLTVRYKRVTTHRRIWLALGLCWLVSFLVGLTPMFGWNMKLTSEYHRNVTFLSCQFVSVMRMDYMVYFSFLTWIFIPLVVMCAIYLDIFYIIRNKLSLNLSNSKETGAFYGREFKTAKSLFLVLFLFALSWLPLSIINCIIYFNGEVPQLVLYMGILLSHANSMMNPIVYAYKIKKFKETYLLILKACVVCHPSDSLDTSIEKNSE

## Cc1cc(-c2c(-c3ccccc3)nc(N)n3nc(CO)nc23)cc(C(F)(F)F)n1 [ILB-2109]
[1]; oral, female SD rats, 600 mg/kg (MTD), 4-week study, read-out: AUC0-24h
  AUC(0-t): 725 µg·h/mL
[1]; oral, female SD rats, 600 mg/kg (MTD), 4-week study, read-out: Cmax
  Cmax: 69400 ng/mL
[1]; oral, male SD rats, 600 mg/kg (MTD), 4-week study, read-out: AUC0-24h
  AUC(0-t): 481 µg·h/mL
[1]; oral, male SD rats, 600 mg/kg (MTD), 4-week study, read-out: Cmax
  Cmax: 36300 ng/mL
[1]; both sexes, po
  NOAEL at 28 days: 60 mg/kg
[1]; both sexes, po, SD rats, intragastric, 28 consecutive days
  MTD at 28 days: 600 mg/kg
[1]; female, 60 mg/kg
  AUC(0-t): 296 µg·h/mL
  Cmax: 22200 ng/mL
[1]; male, 60 mg/kg
  AUC(0-t): 114 µg·h/mL
  Cmax: 15900 ng/mL
[2]
  Ames test result: negative
Plasma protein binding
  binding rate in plasma: 87.3%-95.0%
[3]
  relative abundance of parent drug in plasma samples: more than 83%
CYP3A4; midazolam as substrate
  IC50: > 100 µM
CYP3A4; testosterone as substrate
  IC50: > 100 µM
CYP3A4; [5]
  time-dependent inhibitory effect: no time-dependent inhibitory effect
CYP2C19; human liver microsomes
  IC50: 91.6 µM
CYP2C19; [5]
  time-dependent inhibitory effect: no time-dependent inhibitory effect
CYP2C9; human liver microsomes
  IC50: 57.2 µM
CYP2C9; [5]
  time-dependent inhibitory effect: no time-dependent inhibitory effect
CYP2D6; human liver microsomes
  IC50: > 100 µM
CYP2D6; [5]
  time-dependent inhibitory effect: no time-dependent inhibitory effect
CYP2B6; human liver microsomes
  IC50: > 100 µM
CYP2B6; [5]
  time-dependent inhibitory effect: no time-dependent inhibitory effect
CYP1A2; human liver microsomes
  IC50: > 100 µM
CYP1A2; [5]
  time-dependent inhibitory effect: no time-dependent inhibitory effect
CYP2C8; human liver microsomes
  IC50: 33.9 µM
CYP2C8; [5]
  time-dependent inhibitory effect: no time-dependent inhibitory effect
A2b receptor
  selectivity for A2aR compared with A2b receptor: 40.7 times
A3 receptor
  selectivity for A2aR compared with A3 receptor: 3424.7 times
[4]; both sexes, cynomolgus monkey, plasma, iv, 3 mg/kg, female and male cynomolgus monkeys, single intravenous injection 3 mg/kg
  AUC(0-t): 39.5 ± 5.27 µM·h
[4]; [6]
  AUC(0-t): 35.2 ± 6.87 µM·h
  Cmax: 8.19 ± 1.81 µM
[4]; [7]
  AUC(0-t): 172 ± 34.4 µM·h
  Cmax: 18.2 ± 4 µM
[4]; [8]
  AUC(0-t): 268 ± 42.5 µM·h
  Cmax: 28.3 ± 4.78 µM
[4]; [9]
  AUC(0-t): 192 ± 51.6 µM·h
  Cmax: 33.9 ± 9.66 µM
[4]; [10]
  AUC(0-t): 571 ± 254 µM·h
  Cmax: 59.3 ± 33.3 µM
[4]; both sexes, cynomolgus monkey, plasma, cynomolgus monkeys, 3 mg/kg oral dose group
  bioavailability: 89.1%
[4]; both sexes, cynomolgus monkey, plasma, female and male cynomolgus monkeys, single intravenous injection 3 mg/kg, read-out: elimination half-life (T1/2) (converted)
  half-life: 4.33 ± 0.75 h
[4]; both sexes, cynomolgus monkey, plasma, female and male cynomolgus monkeys, single intravenous injection 3 mg/kg, read-out: plasma clearance rate (CL)
  clearance: 3.13 ± 0.361 mL/min/kg
[4]; both sexes, cynomolgus monkey, plasma, female and male cynomolgus monkeys, single intravenous injection 3 mg/kg, read-out: steady-state apparent volume of distribution (Vd)
  Vd: 0.867 ± 0.141 L/kg
[4]; cynomolgus monkeys, each oral dose
  gender difference in systemic exposure (AUC0-last and Cmax): no significant gender difference
[4]; cynomolgus monkeys, oral 15 mg/kg twice a day for 7 consecutive days
  accumulation of systemic exposure: no obvious accumulation of systemic exposure
[4]; cynomolgus monkeys, oral 15 mg/kg twice a day for 7 days
  peak time: 3.00 ± 1.10 h
[4]; cynomolgus monkeys, oral dose 3 to 60 mg/kg
  dose proportionality of systemic exposure (AUC0-last): increased basically proportionally to the dose
[4]; cynomolgus monkeys, single oral 3 mg/kg
  peak time: 1.33 ± 0.516 h
[4]; cynomolgus monkeys, single oral 15 mg/kg
  peak time: 2.00 ± 1.10 h
[4]; cynomolgus monkeys, single oral 60 mg/kg
  peak time: 4.00 ± 2.19 h

— EP4813990A1, “COMPOUND FOR TREATING CANCER” (INNOLAKE BIOPHARMA (HANGZHOU) CO., LTD., priority 2023, dated 2025)
